pIC50: −log10 of the molar value. Read-outs that look alike come from different tables or passages of the source. Some results are limits rather than exact numbers.

What all share (format): cell-based
Experiment [1] deals with TNFα. Kind of experiment: TNFα counter-screen in LPS and nigericin stimulated PBMCs. To be noted: human PBMCs. As to the method: (§1) Human peripheral blood mononuclear cells (PBMCs), consisting of lymphocytes (T, B and NK cells), monocytes and dendritic cells, were freshly isolated from human peripheral blood from healthy donors. Cells were obtained through an IRB approved donor program by iXCells Biotechnologies where all the donors were tested for bacterial and viral infections. Cells were purified from peripheral blood using ficoll gradient centrifugation.
(§2) Fresh or cryopreserved PMBCs were seeded in V-bottom 96-well plate at 0.5-1×10^5 cells per well and incubated overnight at 37° C. with 5% CO2 in RPMI 1640 medium with GlutaMAX supplement, 4.5 g/L D-glucose, 10% Fetal Bovine Serum (FBS), […] Sodium Pyruvate, 1% Penicillin/Streptomycin, 10 mM HEPES and 0.05 mM of β-mercaptoethanol. Freshly isolated or cryopreserved KCs cells were seeded in flat-bottom 96-well plates at 0.6-1.5×10^5 cells/well and incubated overnight at 37° C. 5% CO2 in RPMI 1640 Medium with GlutaMAX supplement, FBS, 1% Penicillin/Streptomycin and 10 mM HEPES. The following day, the cells were primed with 100 ng/mL of lipopolysaccharides (LPS; Sigma Aldrich) in FBS-free RPMI 1640 for 3 h. After the priming step, the media was removed and PBMCs were pre-incubated with serial concentrations of test compounds (0.00017-10 uM) or vehicle (DMSO) for 30 min in FBS-free media prior to addition of the NLRP3 activator. Cells were then stimulated with 10 uM Nigericin (Sigma Aldrich; InvivoGen) for 1.5 h. Plates were centrifuged at 1,500 rpm for 3 minutes to pellet cells and supernatant was transferred into new plates for subsequent experiments.
For ELISA assays cells were seeded into 96-well plates. Post study, supernatants were removed and the levels of mature IL-1β, IL18 and TNFα (Quantikine ELISA, R&D systems) were measured in cell conditioned media by ELISA according to manufacturer's instructions.
TNFα levels of LPS and nigericin stimulated cells were measured by HTRF assay (Cisbio, Bedford, MA). […] Measuring TNFalpha production also serves as a technical counter-screen to eliminate compounds that interfere with the HTRF reagents. Thus compounds that inhibit both IL-1β and TNFα levels are triaged for either being non-selective for inflammasome or interfering with the HTRF readout.

For experiment [2], the target named is T1, NLRP3 inflammasome (Homo sapiens, UniProt Q96P20). Put plainly: NLRP3 inflammasome activation assay in PBMCs, IL-1β release (ELISA / HTRF). Also on record: were freshly isolated from human peripheral blood from healthy donors; StemCells Technologies; host or cells: primary human PBMCs, LPS-primed, nigericin-stimulated. To be noted: LPS primed. In short, it runs like this:
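Human PBMCs primed with 100 ng/mL LPS for 3 h, pre-treated with compound for 30 min (0.00017–10 µM, or from 40 µM in 2-fold 20-point series), then stimulated with 10 µM nigericin for 1.5 h at 37 °C. Released IL-1β in supernatant quantified by ELISA or by HTRF (665/620 ratio, overnight RT).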

For experiment [3], the target named is T1, NLRP3 inflammasome. Put plainly: THP-1 ASC-GFP speck assay. To be noted: THP-1 ASC-GFP cells, PMA differentiated, LPS primed, 10 μM nigericin; read-out: THP1 ASC Speck IC50. Also on record: host or cells: THP-1 ASC-GFP cells, PMA-differentiated, LPS-primed, nigericin-stimulated. The procedure, abridged:
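PMA-differentiated (500 ng/ml, overnight) THP-1 ASC-GFP cells primed with 1 μg/mL LPS for 3 h, preincubated 30 min with compound (top 40 μM, 2-fold, 20 points), then stimulated with 10 μM nigericin for 90 min at 37 °C. After fixation and Hoechst staining, imaging gave the percentage of cells bearing a GFP ASC speck.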

In experiment [4] the test system is PBMCs. Put plainly: CTG (CellTiter-Glo) viability assay in PBMCs. To be noted: LPS and nigericin stimulated. The procedure: as §1, §2
Viability of compound treated cells was measured using CellTiter-Glo® assay (Promega, Madison, Wis.) that measures the ATP content of cells which is proportional to the number of live cells within a well. This is a counter-screen to establish that the reduction of IL-1β levels in LPS and nigericin stimulated and compound treated cells is not due to cytotoxicity, but rather through the inhibition of the inflammasome pathway. Compounds inhibiting NRLP3 inflammasome activation ultimately increase the viability of LPS and nigericin stimulated cells by blocking NLRP3 mediated pyroptosis that would otherwise lead to cell lysis.

[5] abbreviates: 10 μM nigericin, read-out: PBMC IL-1β IC50.
Where [6] appears, read: human PBMCs, read-out: PBMC CTG IC50.
The mark [7] stands for this setting: 10 uM nigericin, read-out: PBMC IL-1 β IC50.
Where [8] appears, read: PBMC, read-out: PBMC TNF α IC50.

T1 sequence (Q96P20 whole entry): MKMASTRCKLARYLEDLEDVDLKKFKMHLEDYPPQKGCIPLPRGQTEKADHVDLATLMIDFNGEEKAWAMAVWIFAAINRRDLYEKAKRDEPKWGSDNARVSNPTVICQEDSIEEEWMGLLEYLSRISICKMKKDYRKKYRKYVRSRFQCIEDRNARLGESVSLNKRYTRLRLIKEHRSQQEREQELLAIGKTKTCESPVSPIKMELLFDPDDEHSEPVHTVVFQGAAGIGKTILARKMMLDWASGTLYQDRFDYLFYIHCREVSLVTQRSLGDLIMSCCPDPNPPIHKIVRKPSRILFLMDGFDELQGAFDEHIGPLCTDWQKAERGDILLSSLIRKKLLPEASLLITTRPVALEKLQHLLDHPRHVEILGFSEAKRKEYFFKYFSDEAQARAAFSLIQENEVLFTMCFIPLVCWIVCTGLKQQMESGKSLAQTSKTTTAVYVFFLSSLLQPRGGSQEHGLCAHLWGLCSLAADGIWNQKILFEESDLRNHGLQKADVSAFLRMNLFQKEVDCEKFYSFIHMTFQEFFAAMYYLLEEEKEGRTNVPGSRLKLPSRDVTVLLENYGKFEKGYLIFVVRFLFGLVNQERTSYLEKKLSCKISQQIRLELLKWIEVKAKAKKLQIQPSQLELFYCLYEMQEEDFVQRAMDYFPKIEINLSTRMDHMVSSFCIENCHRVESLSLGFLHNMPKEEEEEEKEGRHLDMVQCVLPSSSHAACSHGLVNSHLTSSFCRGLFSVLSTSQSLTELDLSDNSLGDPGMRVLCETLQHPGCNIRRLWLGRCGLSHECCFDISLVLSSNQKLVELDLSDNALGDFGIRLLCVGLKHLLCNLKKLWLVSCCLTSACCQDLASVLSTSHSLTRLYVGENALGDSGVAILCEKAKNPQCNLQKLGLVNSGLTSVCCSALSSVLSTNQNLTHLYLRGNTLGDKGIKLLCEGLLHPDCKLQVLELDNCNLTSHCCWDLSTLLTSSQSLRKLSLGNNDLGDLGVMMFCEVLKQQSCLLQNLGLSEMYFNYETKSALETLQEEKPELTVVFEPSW

With `COC1COc2c(S(N)(=O)=NC(=O)Nc3c4c(c(F)c5c3CCC5)CCC4)cnn2C1` (single isomer, unassigned) [Example 31], the pIC50 in experiment [1] (PBMC) was under 5.00; in experiment [2] (setting [5]), 6.82; in experiment [3], 6.21; in experiment [4] (setting [6]), 7.70.
The matching figures for `NS(=O)(=NC(=O)Nc1c2c(cc3c1CCC3)CCC2)c1cnn2c1OCCC2` (single isomer, unassigned) [Example 13]: under 5.00, 7.46, 7.12 and 8.10.
`NS(=O)(=NC(=O)Nc1c2c(c(F)c3c1CCC3)CCC2)c1cnn2c1OCC2` (racemic) [Example 29, N′-((8-fluoro-1,2,3,5,6,7-hexahydro-s-indacen-4-yl)carbamoyl)-2,3-dihydropyrazolo[5,1-b]oxazole-7-sulfonimidamide]: the pIC50 in experiment [1] (PBMC) is under 5.00; in experiment [2] (setting [5]), 7.03; in experiment [3], 6.85; in experiment [4] (Homo sapiens, PBMC) it was 5.43.
Consider `COC1COc2c(S(N)(=O)=NC(=O)Nc3c4c(cc5c3CCC5)CCC4)cnn2C1` (single isomer, unassigned) [Example 19], for which the pIC50 in experiment [1] (PBMC) is under 5.00; in experiment [2] (setting [5]), 5.95; in experiment [3], 6.19; in experiment [4] (setting [6]) it was 6.07.
As to `CN[C@@H]1COc2c(S(N)(=O)=NC(=O)Nc3c4c(cc5c3CCC5)CCC4)cnn2C1` (mixture of isomers) [Example 17, (6S)—N′-((1,2,3,5,6,7-hexahydro-s-indacen-4-yl)carbamoyl)-6-(methylamino)-6,7-dihydro-5H-pyrazolo[5,1-b][1,3]oxazine-3-sulfonimidamide], the pIC50 in experiment [1] (PBMC) was under 5.00; in experiment [2] (setting [5]), 7.72; in experiment [4] (Homo sapiens, PBMC), 8.10.
As for `CO[C@@H]1COc2c(S(=N)(=O)NC(=O)Nc3c4c(c(F)c5c3CCC5)CCC4)cnn2C1` (stereo partly shown) [drawing 679], the pIC50 in experiment [1] (read-out: PBMC TNF α IC50) was under 5.00; in experiment [2] (setting [7]), 6.00 to 7.00; in experiment [4] (setting [6]), over 7.00.
The matching figures for `CN(C)[C@@H]1COc2c(S(=N)(=O)NC(=O)Nc3c4c(cc5c3CCC5)CCC4)cnn2C1` (stereo partly shown) [drawing 682]: under 5.00, over 7.00 and over 7.00.
For `NS(=O)(=NC(=O)Nc1c2c(c(F)c3c1CCC3)CCC2)c1cnn2c1OCCC2` (single isomer, unassigned) [Example 21], the pIC50 is under 5.00 in experiment [1] (PBMC), 5.33 in experiment [2] (setting [5]) and 5.98 in experiment [4] (setting [6]).
Turning to `COC1COc2c(S(N)(=O)=NC(=O)Nc3c(C(C)C)cc(F)cc3C(C)C)cnn2C1` (single isomer, unassigned) [Example 24], the pIC50 was under 5.00 in experiment [1] (read-out: PBMC TNFα IC50), 6.62 in experiment [2] (setting [5]) and 6.90 in experiment [4] (setting [6]).
On to `NS(=O)(=NC(=O)Nc1c2c(c(F)c3c1CCC3)CCC2)c1cnn2c1OCC2` (stereo not shown), for which the pIC50 in experiment [1] (setting [8]) is under 5.00; in experiment [2] (setting [7]), over 7.00; in experiment [4] (Homo sapiens, PBMC), 5.00 to 6.00.
`Cn1ccc(S(N)(=O)=NC(=O)Nc2c3c(cc4c2CCC4)CCC3)n1` (racemic) [Example 12, N-((1,2,3,5,6,7-hexahydro-s-indacen-4-yl)carbamoyl)-1-methyl-1H-pyrazole-3-sulfonimidamide]: the pIC50 in experiment [1] (PBMC) is under 5.00; in experiment [2] (setting [5]) it was 5.86; in experiment [4] (Homo sapiens, PBMC), 8.22.
Turning to `CO[C@@H]1COc2c(S(=N)(=O)NC(=O)Nc3c(C(C)C)cc(F)cc3C(C)C)cnn2C1` (stereo partly shown) [drawing 672], the results for the pIC50 in experiment [1] (read-out: PBMC TNF α IC50), in experiment [2] (setting [7]) and in experiment [4] (setting [6]) were under 5.00, 6.00 to 7.00 and 6.00 to 7.00, respectively.
For the compound `N=S(=O)(NC(=O)Nc1c2c(cc3c1CCC3)CCC2)c1cnn2c1OC[C@@H](NCCF)C2` (stereo partly shown), the pIC50 in experiment [1] (setting [8]) is under 5.00; in experiment [2] (setting [7]) it was over 7.00; in experiment [4] (Homo sapiens, PBMC) it was 6.00 to 7.00.
Regarding `CN[C@@H]1COc2c(S(=N)(=O)NC(=O)Nc3c(C(C)C)cc(F)cc3C(C)C)cnn2C1` (stereo partly shown), the pIC50 in experiment [1] (setting [8]) is under 5.00; in experiment [2] (setting [7]) it was 6.00 to 7.00; in experiment [4] (Homo sapiens, PBMC), 6.00 to 7.00.
Regarding `CO[C@@H]1COc2c(S(=N)(=O)NC(=O)Nc3c(C(C)C)cc(F)cc3C(C)C)cnn2C1` (stereo partly shown) [drawing 663], the pIC50 is under 5.00 in experiment [1] (setting [8]); 6.00 to 7.00 in experiment [2] (setting [7]); over 7.00 in experiment [4] (Homo sapiens, PBMC).
With `CN[C@@H]1COc2c(S(=N)(=O)NC(=O)Nc3c4c(cc5c3CCC5)CCC4)cnn2C1` (stereo partly shown) [drawing 665], the pIC50 in experiment [1] (setting [8]) was under 5.00; in experiment [2] (setting [7]) it was over 7.00; in experiment [4] (Homo sapiens, PBMC), over 7.00.
With `CN[C@@H]1COc2c(S(=N)(=O)NC(=O)Nc3c(C(C)C)cc(F)cc3C(C)C)cnn2C1` (single isomer, unassigned) [drawing 675], the pIC50 is under 5.00 in experiment [1] (setting [8]); 6.00 to 7.00 in experiment [2] (setting [7]); under 5.00 in experiment [4] (Homo sapiens, PBMC).
As for `CO[C@@H]1COc2c(S(=N)(=O)NC(=O)Nc3c4c(c(F)c5c3CCC5)CCC4)cnn2C1` (stereo partly shown) [drawing 680], the pIC50 is under 5.00 in experiment [1] (read-out: PBMC TNF α IC50), over 7.00 in experiment [2] (setting [7]) and over 7.00 in experiment [4] (setting [6]).
In the case of `CN(C)C1COc2c(S(N)(=O)=NC(=O)Nc3c4c(cc5c3CCC5)CCC4)cnn2C1` (single isomer, unassigned) [Example 34], the pIC50 was under 5.00 in experiment [1] (read-out: PBMC TNFα IC50), 8.22 in experiment [2] (setting [5]) and 8.40 in experiment [4] (setting [6]).
On to `CO[C@@H]1COc2c(S(=N)(=O)NC(=O)Nc3c(C(C)C)cc(F)cc3C(C)C)cnn2C1` (stereo partly shown) [drawing 671], for which the pIC50 in experiment [1] (read-out: PBMC TNF α IC50) was under 5.00; in experiment [2] (setting [7]), 5.00 to 6.00; in experiment [4] (setting [6]), over 7.00.
In the case of `NS(=O)(=NC(=O)Nc1c2c(c(C(=O)O)c3c1CCC3)CCC2)c1cnn2c1OCCC2` (stereo not shown), the negative-log IC50 (pIC50) was under 5.00 in experiment [1] (setting [8]); under 5.00 in experiment [2] (setting [7]); under 5.00 in experiment [4] (Homo sapiens, PBMC).
For `CN(C)[C@@H]1COc2c(S(=N)(=O)NC(=O)Nc3c4c(cc5c3CCC5)CCC4)cnn2C1` (stereo partly shown) [drawing 681], the pIC50 in experiment [1] (setting [8]) was under 5.00; in experiment [2] (setting [7]), 6.00 to 7.00; in experiment [4] (Homo sapiens, PBMC) it was over 7.00.
For `CO[C@@H]1COc2c(S(N)(=O)=NC(=O)Nc3c4c(c(F)c5c3CCC5)CCC4)cnn2C1` (mixture of isomers) [Example 18, (6S)—N′-((8-fluoro-1,2,3,5,6,7-hexahydro-s-indacen-4-yl)carbamoyl)-6-methoxy-6,7-dihydro-5H-pyrazolo[5,1-b][1,3]oxazine-3-sulfonimidamide], the pIC50 in experiment [1] (PBMC) was under 5.00; in experiment [2] (setting [5]), 7.80; in experiment [4] (Homo sapiens, PBMC), 10.00.
In the case of `Cn1ccc(S(=N)(=O)NC(=O)Nc2c3c(cc4c2CCC4)CCC3)n1` (stereo not shown), the pIC50 was under 5.00 in experiment [1] (setting [8]); 5.00 to 6.00 in experiment [2] (setting [7]); over 7.00 in experiment [4] (Homo sapiens, PBMC).
Take `CO[C@@H]1COc2c(S(N)(=O)=NC(=O)Nc3c(C(C)C)cc(F)cc3C(C)C)cnn2C1` (mixture of isomers) [Example 15, (6S)—N′-((4-fluoro-2,6-diisopropylphenyl)carbamoyl)-6-methoxy-6,7-dihydro-5H-pyrazolo[5,1-b][1,3]oxazine-3-sulfonimidamide]: the negative-log IC50 (pIC50) in experiment [1] (PBMC) was under 5.00; in experiment [2] (setting [5]), 6.52; in experiment [4] (Homo sapiens, PBMC), 7.02.

The values above are taken from patent US12234245B2, “Sulfonimidamide compounds as inhibitors of interleukin-1 activity” (Genentech, Inc., priority 2018, dated 2025).
